Laboratory results taken from ChEMBL document CHEMBL1221332, “[3-azabicyclo[3.1.0]hex-1-yl]phenyl-benzenesulfonamides as selective dopamine D3 antagonists” (Bioorg Med Chem Lett, 2010).

Legend:
[1] = molecular target: D(3) dopamine receptor (Homo sapiens, UniProt P35462); assay: Antagonist activity at dopamine D3 receptor by GTPgammaS binding assay; type: functional
[2] = molecular target: D(2) dopamine receptor (Homo sapiens, UniProt P14416)
Description: Antagonist activity at dopamine D2 receptor by GTPgammaS binding assay

[3] = molecular target: Voltage-gated inwardly rectifying potassium channel KCNH2 (Homo sapiens, UniProt Q12809)
[4] = Ratio of drug level in brain to plasma in rat; type: ADME

Voltage-gated inwardly rectifying potassium channel KCNH2, sequence (Q12809 whole entry): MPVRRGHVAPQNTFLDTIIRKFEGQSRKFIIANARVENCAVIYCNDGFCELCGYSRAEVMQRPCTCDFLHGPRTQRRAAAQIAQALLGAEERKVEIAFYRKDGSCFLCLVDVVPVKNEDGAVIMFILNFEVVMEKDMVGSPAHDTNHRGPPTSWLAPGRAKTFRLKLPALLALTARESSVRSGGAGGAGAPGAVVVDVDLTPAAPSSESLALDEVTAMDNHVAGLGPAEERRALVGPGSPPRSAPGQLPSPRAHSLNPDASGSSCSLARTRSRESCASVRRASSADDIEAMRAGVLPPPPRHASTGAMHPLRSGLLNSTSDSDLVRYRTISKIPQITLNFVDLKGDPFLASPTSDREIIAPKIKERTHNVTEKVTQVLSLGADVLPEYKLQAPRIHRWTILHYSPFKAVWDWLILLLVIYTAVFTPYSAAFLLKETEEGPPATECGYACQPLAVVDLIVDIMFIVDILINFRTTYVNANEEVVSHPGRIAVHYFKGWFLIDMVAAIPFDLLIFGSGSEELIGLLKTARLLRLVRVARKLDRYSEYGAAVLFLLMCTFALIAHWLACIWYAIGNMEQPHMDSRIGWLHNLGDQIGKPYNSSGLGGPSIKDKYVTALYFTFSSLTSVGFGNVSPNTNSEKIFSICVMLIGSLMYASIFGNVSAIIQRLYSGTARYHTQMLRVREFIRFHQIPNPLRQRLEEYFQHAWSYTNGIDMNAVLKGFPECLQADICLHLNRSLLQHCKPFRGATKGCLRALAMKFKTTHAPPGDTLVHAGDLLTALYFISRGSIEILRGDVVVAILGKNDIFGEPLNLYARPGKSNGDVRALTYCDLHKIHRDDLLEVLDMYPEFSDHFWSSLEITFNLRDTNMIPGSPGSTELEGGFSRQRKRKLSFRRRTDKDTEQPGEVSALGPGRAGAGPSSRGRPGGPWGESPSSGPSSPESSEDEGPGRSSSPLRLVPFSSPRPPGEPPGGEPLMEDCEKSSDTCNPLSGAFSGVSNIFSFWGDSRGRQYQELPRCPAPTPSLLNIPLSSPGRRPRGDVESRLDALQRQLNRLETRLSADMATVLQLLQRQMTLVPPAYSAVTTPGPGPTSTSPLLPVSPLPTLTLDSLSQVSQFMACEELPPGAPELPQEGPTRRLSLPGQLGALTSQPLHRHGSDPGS
D(3) dopamine receptor, sequence (P35462 whole entry): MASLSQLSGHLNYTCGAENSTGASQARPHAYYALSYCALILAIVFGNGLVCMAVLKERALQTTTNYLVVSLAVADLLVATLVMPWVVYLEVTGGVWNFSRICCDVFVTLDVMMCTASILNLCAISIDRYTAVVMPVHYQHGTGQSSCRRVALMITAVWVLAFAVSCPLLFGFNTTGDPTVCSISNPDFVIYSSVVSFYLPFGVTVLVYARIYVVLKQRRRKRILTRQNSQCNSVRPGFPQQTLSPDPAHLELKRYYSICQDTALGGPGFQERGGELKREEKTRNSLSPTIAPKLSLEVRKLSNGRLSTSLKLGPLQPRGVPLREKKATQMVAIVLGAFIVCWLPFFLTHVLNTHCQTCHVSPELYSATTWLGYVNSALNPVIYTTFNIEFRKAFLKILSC
D(2) dopamine receptor, sequence (P14416 whole entry): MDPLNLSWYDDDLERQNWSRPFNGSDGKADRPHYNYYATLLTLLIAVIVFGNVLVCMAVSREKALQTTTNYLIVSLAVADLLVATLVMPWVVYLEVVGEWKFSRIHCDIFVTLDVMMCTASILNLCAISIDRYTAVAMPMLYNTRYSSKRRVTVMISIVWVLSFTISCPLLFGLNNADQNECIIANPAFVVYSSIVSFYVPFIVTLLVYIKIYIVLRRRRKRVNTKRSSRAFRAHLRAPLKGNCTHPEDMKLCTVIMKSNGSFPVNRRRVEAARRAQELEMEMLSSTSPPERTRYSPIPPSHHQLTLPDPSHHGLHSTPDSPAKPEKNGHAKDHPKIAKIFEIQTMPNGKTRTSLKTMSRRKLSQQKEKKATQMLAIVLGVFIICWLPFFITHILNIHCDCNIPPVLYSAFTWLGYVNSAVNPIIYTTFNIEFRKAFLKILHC

Structure (SMILES)	Ki [1] [µM]	Ki [2] [µM]	IC50 [3] [µM]	Kp [4]
CC(C)c1ccc(S(=O)(=O)Cc2ccc([C@]34CNC[C@H]3C4)cc2)cc1	0.0251	0.316	1.26	
CN(c1ccc([C@]23CNC[C@H]2C3)cc1)S(=O)(=O)c1ccccc1	0.0794	0.501	> 63.1	
CC(C)c1ccc(CS(=O)(=O)c2ccc([C@]34CNC[C@H]3C4)cc2)cc1	0.0251	> 3.16	3.16	
CCCCc1ccc(S(=O)(=O)Nc2ccc([C@]34CNC[C@H]3C4)cc2)cc1	0.00501	0.126		
CCC(C)(C)c1ccc(S(=O)(=O)Nc2ccc([C@]34CNC[C@H]3C4)cc2)cc1	0.00631	0.0501		
CC(C)c1ccc(S(=O)(=O)Nc2ccc([C@@]34C[C@@H]3CN(C)C4)cc2)cc1	0.00631	0.0631	1.58	7.3
CCN1C[C@H]2C[C@@]2(c2ccc(NS(=O)(=O)c3ccc(C(C)C)cc3)cc2)C1	0.00794	0.1	1.26	
C=CCN1C[C@H]2C[C@@]2(c2ccc(NS(=O)(=O)c3ccc(C(C)C)cc3)cc2)C1	0.00251	0.0631	0.1	
COc1cc([C@]23CNC[C@H]2C3)ccc1NS(=O)(=O)c1ccc(C(C)C)cc1		0.0501		
O=S(=O)(Nc1ccc([C@]23CNC[C@H]2C3)cc1)c1ccc(C(F)(F)F)cc1	0.251	> 3.16	0.794	
O=S(=O)(Nc1ccc([C@]23CNC[C@H]2C3)cc1)c1ccc(OC(F)(F)F)cc1	0.631	1	10	
CC(C)c1ccc(S(=O)(=O)Nc2ccc([C@]34CNC[C@H]3C4)cc2)cc1 (racemic)	0.00251		1	
CC(C)c1ccc(S(=O)(=O)Nc2ccc(C34CNCC3C4)cc2)cc1 (single isomer, unassigned; enantiomer 1)	0.00398		5.01	
CC(C)c1ccc(S(=O)(=O)Nc2ccc(C34CNCC3C4)cc2)cc1 (single isomer, unassigned; enantiomer 2)	0.2		1.58	
